What was measured:
Assay in all cases: RBC kinase panel
Assay type in all cases: biochemical
DCAMKL1 = biological target: T1, DCAMKL1 (Homo sapiens, UniProt O15075); conditions: ATP 10 μM, Data1, Data2
T1 construct: purchased Reaction Biology Corporation
In short: (§1)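 1 μM inhibitor; n = 2; ATP 10 μM; broad panel of 369 human kinases.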

BTK = biological target: T2, BTK (Homo sapiens, UniProt Q06187); conditions: ATP 10 μM, Data1, Data2
T2 construct: purchased Reaction Biology Corporation
In short: as §1

AKT3 = biological target: T3, AKT3 (Homo sapiens, UniProt Q9Y243); conditions: ATP 10 μM, Data1, Data2
T3 construct: purchased Reaction Biology Corporation
In short: as §1

GRK1 = biological target: T4, GRK1 (Homo sapiens, UniProt Q15835); conditions: ATP 10 μM, Data1, Data2
T4 construct: purchased Reaction Biology Corporation
In short: as §1

ZAP70 = biological target: T5, ZAP70 (Homo sapiens, UniProt P43403); conditions: ATP 10 μM, Data1, Data2
T5 construct: purchased Reaction Biology Corporation
In short: as §1

CDK9/cyclin T1 = biological target: T6, CDK9/cyclin T1 (Homo sapiens, UniProt P50750); conditions: ATP 10 μM, Data1, Data2
T6 construct: purchased Reaction Biology Corporation
In short: as §1

MLK1/MAP3K9 = biological target: T7, MLK1/MAP3K9 (Homo sapiens, UniProt P80192); conditions: ATP 10 μM, Data1, Data2
T7 construct: purchased Reaction Biology Corporation
In short: as §1

MAPKAPK2 = biological target: T8, MAPKAPK2 (Homo sapiens, UniProt P49137); conditions: ATP 10 μM, Data1, Data2
T8 construct: purchased Reaction Biology Corporation
In short: as §1

TRKC = biological target: T9, TRKC (Homo sapiens, UniProt Q16288)
T9 construct: purchased Reaction Biology Corporation
T9 sequence (Q16288 32-839): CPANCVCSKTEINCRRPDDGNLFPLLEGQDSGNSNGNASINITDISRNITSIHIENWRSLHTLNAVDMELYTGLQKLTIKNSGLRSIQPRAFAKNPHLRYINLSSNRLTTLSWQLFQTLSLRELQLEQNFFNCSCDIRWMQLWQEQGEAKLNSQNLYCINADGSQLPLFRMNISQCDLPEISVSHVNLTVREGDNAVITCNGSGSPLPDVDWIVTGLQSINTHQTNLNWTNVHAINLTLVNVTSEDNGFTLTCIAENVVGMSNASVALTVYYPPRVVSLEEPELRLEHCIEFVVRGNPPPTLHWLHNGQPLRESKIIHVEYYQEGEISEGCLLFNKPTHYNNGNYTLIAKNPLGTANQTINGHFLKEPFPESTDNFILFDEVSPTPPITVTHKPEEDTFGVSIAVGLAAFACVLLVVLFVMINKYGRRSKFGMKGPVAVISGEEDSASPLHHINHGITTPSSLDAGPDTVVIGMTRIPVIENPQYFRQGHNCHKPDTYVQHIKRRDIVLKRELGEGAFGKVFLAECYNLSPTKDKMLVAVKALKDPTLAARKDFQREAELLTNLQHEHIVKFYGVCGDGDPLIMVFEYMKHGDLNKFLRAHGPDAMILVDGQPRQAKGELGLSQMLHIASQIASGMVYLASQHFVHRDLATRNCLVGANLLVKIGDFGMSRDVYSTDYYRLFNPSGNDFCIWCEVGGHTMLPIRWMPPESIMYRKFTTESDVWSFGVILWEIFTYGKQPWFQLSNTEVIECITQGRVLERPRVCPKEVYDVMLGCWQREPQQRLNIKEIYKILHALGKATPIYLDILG
In short: as §1

STK16 = biological target: T10, STK16 (Homo sapiens, UniProt O75716); conditions: ATP 10 μM, Data1, Data2
T10 construct: purchased Reaction Biology Corporation
T10 sequence (O75716 whole entry): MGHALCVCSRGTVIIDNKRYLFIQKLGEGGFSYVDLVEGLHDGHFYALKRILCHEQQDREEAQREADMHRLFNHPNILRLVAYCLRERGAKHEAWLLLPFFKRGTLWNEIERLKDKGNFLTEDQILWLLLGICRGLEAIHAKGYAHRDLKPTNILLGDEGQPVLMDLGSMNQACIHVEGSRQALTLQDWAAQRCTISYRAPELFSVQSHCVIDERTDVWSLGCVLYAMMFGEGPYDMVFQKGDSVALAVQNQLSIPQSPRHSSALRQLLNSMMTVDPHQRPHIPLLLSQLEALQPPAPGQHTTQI
In short: as §1

COT1/MAP3K8 = biological target: T11, COT1/MAP3K8 (Homo sapiens, UniProt P41279); conditions: ATP 10 μM, Data1, Data2
T11 construct: purchased Reaction Biology Corporation
In short: as §1

NEK7 = biological target: T12, NEK7 (Homo sapiens, UniProt Q8TDX7); conditions: ATP 10 μM, Data1, Data2
T12 construct: purchased Reaction Biology Corporation
In short: as §1

FAK/PTK2 = biological target: T13, FAK/PTK2 (Homo sapiens, UniProt Q05397); conditions: ATP 10 μM, Data1, Data2
T13 construct: purchased Reaction Biology Corporation
In short: as §1

KDR/VEGFR2 = biological target: T14, KDR/VEGFR2 (Homo sapiens, UniProt P35968); conditions: ATP 10 μM, Data1, Data2
T14 construct: purchased Reaction Biology Corporation
In short: as §1

MEKK6 = biological target: T15, MEKK6 (Homo sapiens, UniProt O95382); conditions: ATP 10 μM, Data1, Data2
T15 construct: purchased Reaction Biology Corporation
In short: as §1

SIK3 = biological target: T16, SIK3 (Homo sapiens, UniProt Q9Y2K2); conditions: ATP 10 μM, Data1, Data2
T16 construct: purchased Reaction Biology Corporation
In short: as §1

MYO3b = biological target: T17, MYO3b (Homo sapiens, UniProt Q8WXR4); conditions: ATP 10 μM, Data1, Data2
T17 construct: purchased Reaction Biology Corporation
In short: as §1

PAK2 = biological target: T18, PAK2 (Homo sapiens, UniProt Q13177); conditions: ATP 10 μM, Data1, Data2
T18 construct: purchased Reaction Biology Corporation
T18 sequence (Q13177 whole entry): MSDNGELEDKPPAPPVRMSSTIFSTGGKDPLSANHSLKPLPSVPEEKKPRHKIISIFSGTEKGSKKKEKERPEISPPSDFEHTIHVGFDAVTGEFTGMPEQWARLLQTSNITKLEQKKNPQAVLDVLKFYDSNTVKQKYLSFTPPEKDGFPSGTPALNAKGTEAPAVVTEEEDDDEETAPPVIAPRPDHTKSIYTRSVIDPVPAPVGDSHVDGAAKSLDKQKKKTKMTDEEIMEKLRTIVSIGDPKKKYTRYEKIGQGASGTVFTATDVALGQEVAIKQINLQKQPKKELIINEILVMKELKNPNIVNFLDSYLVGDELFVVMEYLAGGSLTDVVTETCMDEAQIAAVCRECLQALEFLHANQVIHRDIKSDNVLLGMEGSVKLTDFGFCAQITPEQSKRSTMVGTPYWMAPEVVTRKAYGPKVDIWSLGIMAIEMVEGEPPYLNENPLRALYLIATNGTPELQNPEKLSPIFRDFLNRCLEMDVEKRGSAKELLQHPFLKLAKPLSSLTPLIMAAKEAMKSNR
In short: as §1

HGK/MAP4K4 = biological target: T19, HGK/MAP4K4 (Homo sapiens, UniProt O95819); conditions: ATP 10 μM, Data1, Data2
T19 construct: purchased Reaction Biology Corporation
T19 sequence (O95819 whole entry): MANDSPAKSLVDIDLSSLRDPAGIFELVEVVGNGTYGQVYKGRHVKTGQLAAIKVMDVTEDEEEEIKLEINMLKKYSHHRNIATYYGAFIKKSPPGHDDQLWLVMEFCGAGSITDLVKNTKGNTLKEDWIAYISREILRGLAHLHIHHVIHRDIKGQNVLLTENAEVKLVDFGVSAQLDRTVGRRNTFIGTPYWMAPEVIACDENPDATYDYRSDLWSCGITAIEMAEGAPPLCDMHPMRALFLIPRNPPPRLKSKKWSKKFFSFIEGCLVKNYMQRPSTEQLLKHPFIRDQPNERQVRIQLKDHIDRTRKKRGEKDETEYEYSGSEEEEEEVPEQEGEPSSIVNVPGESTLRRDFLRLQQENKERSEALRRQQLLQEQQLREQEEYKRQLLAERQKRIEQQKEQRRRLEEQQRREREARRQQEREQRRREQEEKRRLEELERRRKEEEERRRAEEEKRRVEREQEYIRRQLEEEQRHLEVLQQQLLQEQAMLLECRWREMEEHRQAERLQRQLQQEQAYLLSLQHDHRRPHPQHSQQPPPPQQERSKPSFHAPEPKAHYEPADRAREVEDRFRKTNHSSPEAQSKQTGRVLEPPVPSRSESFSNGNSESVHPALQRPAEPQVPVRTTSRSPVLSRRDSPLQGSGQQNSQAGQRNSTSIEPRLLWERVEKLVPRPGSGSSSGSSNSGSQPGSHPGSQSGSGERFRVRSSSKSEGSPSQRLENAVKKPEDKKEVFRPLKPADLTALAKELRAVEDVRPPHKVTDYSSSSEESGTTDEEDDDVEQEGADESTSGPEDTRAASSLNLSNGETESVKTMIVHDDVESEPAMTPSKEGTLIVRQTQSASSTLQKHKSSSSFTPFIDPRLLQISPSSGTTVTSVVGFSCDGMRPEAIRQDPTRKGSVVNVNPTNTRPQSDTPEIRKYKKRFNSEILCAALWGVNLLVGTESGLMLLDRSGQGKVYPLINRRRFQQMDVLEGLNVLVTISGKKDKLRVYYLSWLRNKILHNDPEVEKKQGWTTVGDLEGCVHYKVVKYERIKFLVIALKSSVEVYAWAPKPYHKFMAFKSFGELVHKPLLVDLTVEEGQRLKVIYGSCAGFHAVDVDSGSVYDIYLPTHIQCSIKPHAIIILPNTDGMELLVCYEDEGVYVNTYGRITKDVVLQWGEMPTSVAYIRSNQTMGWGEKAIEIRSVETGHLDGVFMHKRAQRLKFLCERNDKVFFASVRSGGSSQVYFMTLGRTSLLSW
In short: as §1

TXK = biological target: T20, TXK (Homo sapiens, UniProt P42681); conditions: ATP 10 μM, Data1, Data2
T20 construct: purchased Reaction Biology Corporation
T20 sequence (P42681 whole entry): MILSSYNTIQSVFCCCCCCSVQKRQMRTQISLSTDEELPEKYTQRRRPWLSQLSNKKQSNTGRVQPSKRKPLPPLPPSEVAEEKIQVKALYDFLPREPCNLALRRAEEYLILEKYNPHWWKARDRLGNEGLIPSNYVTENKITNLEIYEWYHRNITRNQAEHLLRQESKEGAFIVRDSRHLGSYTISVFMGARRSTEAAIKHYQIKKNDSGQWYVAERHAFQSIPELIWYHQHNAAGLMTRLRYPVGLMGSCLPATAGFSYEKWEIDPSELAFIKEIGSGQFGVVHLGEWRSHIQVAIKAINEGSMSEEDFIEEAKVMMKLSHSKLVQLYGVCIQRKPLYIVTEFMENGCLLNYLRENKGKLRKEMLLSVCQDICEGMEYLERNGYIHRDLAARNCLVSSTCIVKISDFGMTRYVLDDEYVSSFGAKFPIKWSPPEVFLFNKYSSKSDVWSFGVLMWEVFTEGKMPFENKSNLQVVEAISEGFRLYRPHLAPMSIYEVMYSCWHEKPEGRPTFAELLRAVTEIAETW
In short: as §1

c-MET = biological target: T21, c-MET (Homo sapiens, UniProt P08581); conditions: ATP 10 μM, Data1, Data2
T21 construct: purchased Reaction Biology Corporation
In short: as §1

STK32B/YANK2 = biological target: T22, STK32B/YANK2 (Homo sapiens, UniProt Q9NY57); conditions: ATP 10 μM, Data1, Data2
T22 construct: purchased Reaction Biology Corporation
In short: as §1

WNK3 = biological target: T23, WNK3 (Homo sapiens, UniProt Q9BYP7); conditions: ATP 10 μM, Data1, Data2
T23 construct: purchased Reaction Biology Corporation
In short: as §1

ALK6/BMPR1B = biological target: T24, ALK6/BMPR1B (Homo sapiens, UniProt O00238); conditions: ATP 10 μM, Data1, Data2
T24 construct: purchased Reaction Biology Corporation
In short: as §1

LATS1 = biological target: T25, LATS1 (Homo sapiens, UniProt O95835); conditions: ATP 10 μM, Data1, Data2
T25 construct: purchased Reaction Biology Corporation
In short: as §1

IGF1R = biological target: T26, IGF1R (Homo sapiens, UniProt P08069); conditions: ATP 10 μM, Data1, Data2
T26 construct: purchased Reaction Biology Corporation
In short: as §1

MEK3 = biological target: T27, MEK3 (Homo sapiens, UniProt P46734); conditions: ATP 10 μM, Data1, Data2
T27 construct: purchased Reaction Biology Corporation
In short: as §1

RIPK2 = biological target: T28, RIPK2 (Homo sapiens, UniProt O43353); conditions: ATP 10 μM, Data1, Data2
T28 construct: purchased Reaction Biology Corporation
In short: as §1

ERK5/MAPK7 = biological target: T29, ERK5/MAPK7 (Homo sapiens, UniProt Q13164); conditions: ATP 10 μM, Data1, Data2
T29 construct: purchased Reaction Biology Corporation
In short: as §1

MKK7 = biological target: T30, MKK7 (Homo sapiens, UniProt O14733); conditions: ATP 10 μM, Data1, Data2
T30 construct: purchased Reaction Biology Corporation
In short: as §1

MELK = biological target: T31, MELK (Homo sapiens, UniProt Q14680); conditions: ATP 10 μM, Data1, Data2
T31 construct: purchased Reaction Biology Corporation
In short: as §1

STK22D/TSSK1 = biological target: T32, STK22D/TSSK1 (Homo sapiens, UniProt Q9BXA7); conditions: ATP 10 μM, Data1, Data2
T32 construct: purchased Reaction Biology Corporation
T32 sequence (Q9BXA7 whole entry): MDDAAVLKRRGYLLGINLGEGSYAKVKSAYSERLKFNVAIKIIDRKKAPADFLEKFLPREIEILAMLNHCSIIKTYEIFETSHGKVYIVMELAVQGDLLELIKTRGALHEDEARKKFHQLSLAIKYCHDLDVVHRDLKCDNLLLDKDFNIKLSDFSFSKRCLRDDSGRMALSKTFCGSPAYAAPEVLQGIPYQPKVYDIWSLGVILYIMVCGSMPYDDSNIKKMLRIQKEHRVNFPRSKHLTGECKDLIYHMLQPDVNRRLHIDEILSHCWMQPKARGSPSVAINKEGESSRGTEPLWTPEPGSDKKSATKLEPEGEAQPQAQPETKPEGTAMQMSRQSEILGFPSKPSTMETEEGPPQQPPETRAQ
In short: as §1

CAMK1g = biological target: T33, CAMK1g (Homo sapiens, UniProt Q96NX5); conditions: ATP 10 μM, Data1, Data2
T33 construct: purchased Reaction Biology Corporation
T33 sequence (Q96NX5 whole entry): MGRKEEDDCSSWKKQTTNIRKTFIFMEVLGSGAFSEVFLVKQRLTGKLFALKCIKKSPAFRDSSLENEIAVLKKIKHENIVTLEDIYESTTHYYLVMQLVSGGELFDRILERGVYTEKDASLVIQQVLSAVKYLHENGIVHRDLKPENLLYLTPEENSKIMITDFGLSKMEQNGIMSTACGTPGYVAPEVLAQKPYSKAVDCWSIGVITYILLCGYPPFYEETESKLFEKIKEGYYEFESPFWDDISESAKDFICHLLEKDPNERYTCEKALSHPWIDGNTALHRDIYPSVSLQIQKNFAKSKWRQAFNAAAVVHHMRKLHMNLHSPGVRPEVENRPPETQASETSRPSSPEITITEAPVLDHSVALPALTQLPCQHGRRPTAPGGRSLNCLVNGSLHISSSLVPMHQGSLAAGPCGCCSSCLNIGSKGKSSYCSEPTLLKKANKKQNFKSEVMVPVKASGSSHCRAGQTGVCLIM
In short: as §1

T2 sequence (Q06187 whole entry): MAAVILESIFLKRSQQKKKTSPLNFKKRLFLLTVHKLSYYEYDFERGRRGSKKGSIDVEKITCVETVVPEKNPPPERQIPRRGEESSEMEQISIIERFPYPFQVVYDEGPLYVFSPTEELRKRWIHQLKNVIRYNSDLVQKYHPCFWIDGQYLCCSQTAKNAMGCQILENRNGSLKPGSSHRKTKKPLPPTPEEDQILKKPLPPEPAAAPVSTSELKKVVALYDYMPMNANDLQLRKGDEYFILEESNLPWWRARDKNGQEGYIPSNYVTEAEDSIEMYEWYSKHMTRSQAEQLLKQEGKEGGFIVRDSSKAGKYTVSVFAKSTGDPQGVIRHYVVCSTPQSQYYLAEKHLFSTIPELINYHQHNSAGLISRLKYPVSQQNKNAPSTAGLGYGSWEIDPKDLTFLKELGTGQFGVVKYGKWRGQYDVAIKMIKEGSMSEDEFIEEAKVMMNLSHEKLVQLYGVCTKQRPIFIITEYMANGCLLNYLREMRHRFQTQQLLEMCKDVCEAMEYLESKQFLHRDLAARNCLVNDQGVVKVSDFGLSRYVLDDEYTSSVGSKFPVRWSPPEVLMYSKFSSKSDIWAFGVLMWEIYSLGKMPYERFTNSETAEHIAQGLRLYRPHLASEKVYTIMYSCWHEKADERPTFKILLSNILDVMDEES

## CC(=O)Nc1nc2ccc(-c3cnc(C)c(NC(=O)OC4CCCCC4)c3)cc2s1 [PK68, cyclohexyl (5-(2-acetamidobenzo[d]thiazol-6-yl)-2-methylpyridin-3-yl)carbamate]
DCAMKL1; 1 μM
  Activity%: 87.59%
DCAMKL1
  activity at 1 µM: 87.7%
BTK; 1 μM
  Activity%: 90.38%
BTK
  activity at 1 µM: 91.2%
AKT3; 1 μM
  Activity%: 98.71%
AKT3
  activity at 1 µM: 100%
GRK1; 1 μM
  Activity%: 99.42%
GRK1
  activity at 1 µM: 100%
ZAP70; 1 μM
  Activity%: 105.87%
ZAP70
  activity at 1 µM: 107%
CDK9/cyclin T1; 1 μM
  Activity%: 110.56%
CDK9/cyclin T1
  activity at 1 µM: 111%
MLK1/MAP3K9; 1 μM
  Activity%: 99.64%
MLK1/MAP3K9
  activity at 1 µM: 99.7%
MAPKAPK2; 1 μM
  Activity%: 100.37%
MAPKAPK2
  activity at 1 µM: 101%
TRKC; 1 μM, ATP 10 μM, Data1, Data2
  Activity%: 33.96%
  activity at 1 µM: 35.4%
TRKC; at 1000 nM
  inhibition at 1 µM: > 50%
STK16; 1 μM
  Activity%: 85.85%
STK16
  activity at 1 µM: 88.2%
COT1/MAP3K8; 1 μM
  Activity%: 94.93%
COT1/MAP3K8
  activity at 1 µM: 95.2%
NEK7; 1 μM
  Activity%: 103.37%
NEK7
  activity at 1 µM: 105%
FAK/PTK2; 1 μM
  Activity%: 96.95%
FAK/PTK2
  activity at 1 µM: 98%
KDR/VEGFR2; 1 μM
  Activity%: 88.68%
KDR/VEGFR2
  activity at 1 µM: 90.3%
MEKK6; 1 μM
  Activity%: 88.83%
MEKK6
  activity at 1 µM: 91.3%
SIK3; 1 μM
  Activity%: 94.84%
SIK3
  activity at 1 µM: 99.4%
MYO3b; 1 μM
  Activity%: 99.36%
MYO3b
  activity at 1 µM: 99.9%
PAK2; 1 μM
  Activity%: 104.24%
PAK2
  activity at 1 µM: 105%
HGK/MAP4K4; 1 μM
  Activity%: 82.64%
HGK/MAP4K4
  activity at 1 µM: 84.4%
TXK; 1 μM
  Activity%: 99.58%
TXK
  activity at 1 µM: 101%
c-MET; 1 μM
  Activity%: 101.99%
c-MET
  activity at 1 µM: 102%
STK32B/YANK2; 1 μM
  Activity%: 106.39%
STK32B/YANK2
  activity at 1 µM: 107%
WNK3; 1 μM
  Activity%: 106.32%
WNK3
  activity at 1 µM: 107%
ALK6/BMPR1B; 1 μM
  Activity%: 91.83%
ALK6/BMPR1B
  activity at 1 µM: 92.5%
LATS1; 1 μM
  Activity%: 101.83%
LATS1
  activity at 1 µM: 103%
IGF1R; 1 μM
  Activity%: 103.88%
IGF1R
  activity at 1 µM: 104%
MEK3; 1 μM
  Activity%: 99.61%
MEK3
  activity at 1 µM: 99.7%
RIPK2; 1 μM
  Activity%: 85.19%
RIPK2
  activity at 1 µM: 91.2%
ERK5/MAPK7; 1 μM
  Activity%: 98.25%
ERK5/MAPK7
  activity at 1 µM: 99.3%
MKK7; 1 μM
  Activity%: 93.03%
MKK7
  activity at 1 µM: 98%
MELK; 1 μM
  Activity%: 100.40%
MELK
  activity at 1 µM: 102%
STK22D/TSSK1; 1 μM
  Activity%: 103.75%
STK22D/TSSK1
  activity at 1 µM: 104%
CAMK1g; 1 μM
  Activity%: 92.94%
CAMK1g
  activity at 1 µM: 93%

— PMC6591251, “Discovery of potent necroptosis inhibitors targeting RIPK1 kinase activity for the treatment of inflammatory disorder and cancer metastasis” (Cell Death & Disease, 2019)
